Consider 16 molecules from ChEMBL document CHEMBL1141589, “Synthesis and biological evaluation of NO-donor-tacrine hybrids as hepatoprotective anti-Alzheimer drug candidates” (J Med Chem, 2008).

One assay concerns the target Acetylcholinesterase (Homo sapiens, UniProt P22303). Nature of the assay: Inhibition of AChE by Ellman's assay. Background: DTNB colorimetry detects thiols as they appear.
For the next assay, the target named is Cholinesterase (Homo sapiens, UniProt P06276).
Another assay deals with Artery. Nature of the assay: tissue or blood. The following applies: Sus scrofa.

Chain of Acetylcholinesterase (P22303 whole entry): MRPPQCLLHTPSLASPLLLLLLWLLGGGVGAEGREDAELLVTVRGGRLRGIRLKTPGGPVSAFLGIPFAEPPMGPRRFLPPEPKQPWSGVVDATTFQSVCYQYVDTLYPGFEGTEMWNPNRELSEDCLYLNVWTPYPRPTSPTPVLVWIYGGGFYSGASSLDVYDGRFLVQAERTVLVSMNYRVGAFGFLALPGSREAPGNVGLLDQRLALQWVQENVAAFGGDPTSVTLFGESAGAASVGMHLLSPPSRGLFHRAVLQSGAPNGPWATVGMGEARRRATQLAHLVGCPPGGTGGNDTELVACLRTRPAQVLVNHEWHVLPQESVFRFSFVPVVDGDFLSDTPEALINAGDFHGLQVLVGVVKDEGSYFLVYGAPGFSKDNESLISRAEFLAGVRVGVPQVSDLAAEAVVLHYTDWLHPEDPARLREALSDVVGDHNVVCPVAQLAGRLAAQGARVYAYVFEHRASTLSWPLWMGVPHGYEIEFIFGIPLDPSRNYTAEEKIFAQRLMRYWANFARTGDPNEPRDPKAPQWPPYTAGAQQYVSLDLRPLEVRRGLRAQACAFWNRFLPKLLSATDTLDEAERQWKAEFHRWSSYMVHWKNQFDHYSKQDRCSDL
Chain of Cholinesterase (P06276 whole entry): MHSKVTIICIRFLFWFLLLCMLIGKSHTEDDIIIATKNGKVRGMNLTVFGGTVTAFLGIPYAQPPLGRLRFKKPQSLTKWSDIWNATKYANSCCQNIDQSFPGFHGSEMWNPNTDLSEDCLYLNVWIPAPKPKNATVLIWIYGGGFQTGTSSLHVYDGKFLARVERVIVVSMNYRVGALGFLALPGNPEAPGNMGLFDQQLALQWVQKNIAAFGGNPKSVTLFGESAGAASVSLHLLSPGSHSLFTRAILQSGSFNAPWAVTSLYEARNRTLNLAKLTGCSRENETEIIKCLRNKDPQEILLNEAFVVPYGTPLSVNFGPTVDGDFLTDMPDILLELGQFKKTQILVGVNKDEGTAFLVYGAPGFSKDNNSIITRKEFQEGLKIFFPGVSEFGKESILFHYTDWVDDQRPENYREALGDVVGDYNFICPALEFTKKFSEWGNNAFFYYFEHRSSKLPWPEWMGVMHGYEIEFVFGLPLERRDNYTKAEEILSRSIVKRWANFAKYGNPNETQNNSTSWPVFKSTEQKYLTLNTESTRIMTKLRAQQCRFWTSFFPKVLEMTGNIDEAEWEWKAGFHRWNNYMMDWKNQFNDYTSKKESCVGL
Description for Artery: Vasorelaxation activity in PGF2-alpha-precontracted pig pulmonary artery

The IC50 is the concentration that gives 50% inhibition. Turning to `O=C(CO/N=[N+](\[O-])N1CCCC1)NCCCCNc1c2c(nc3ccccc13)CCCC2`, the IC50 against Acetylcholinesterase was found to be 50.7 nM; against Cholinesterase, 41 nM.
The EC50 is the concentration at which the effect is half-maximal. A high value points to a need for much substance. On to `O=C(CO/N=[N+](\[O-])N1CCCC1)NCCCNc1c2c(nc3ccccc13)CCCC2`, for which a half-maximal effect in the assay with Artery (EC50) was put at 22500 nM. Further, the IC50 at Acetylcholinesterase turned out to be 35.5 nM; at Cholinesterase it was 15.3 nM.
In the assay with Artery, `O=[N+]([O-])O[C@H]1CO[C@H]2[C@@H]1OC[C@H]2O[N+](=O)[O-]` [ISOSORBIDE DINITRATE] gave an EC50 of 420 nM.
On to `O=[N+]([O-])OCCCNCCCNc1c2c(nc3ccccc13)CCCC2`, for which the IC50 against Acetylcholinesterase worked out at 6.4 nM; on Cholinesterase, 5.5 nM.
For the molecule `O=C(CCO[N+](=O)[O-])NCCCNc1c2c(nc3ccccc13)CCCC2`, the IC50 on Acetylcholinesterase is 93 nM; at Cholinesterase, 28 nM.
The corresponding values for `O=[N+]([O-])OCCCCCCNCCCNc1c2c(nc3ccccc13)CCCC2` are 6.3 nM and 21.7 nM.
The matching figures for `CC(C)(C)C(=O)NCCCCNc1c2c(nc3ccccc13)CCCC2`: 21.6 nM and 36.5 nM.
`CC(C)(CO[N+](=O)[O-])C(=O)NCCCCNc1c2c(nc3ccccc13)CCCC2`: in the assay with Artery, the EC50 is 10500 nM. The half-inhibitory concentration (IC50) is 226 nM against Acetylcholinesterase and 7.3 nM against Cholinesterase.
Take `O=[N+]([O-])OCCNCCCCNc1c2c(nc3ccccc13)CCCC2`: the IC50 is 11.1 nM on Acetylcholinesterase and 13.8 nM at Cholinesterase.
The matching figures for `O=C(CO[N+](=O)[O-])NCCCCNc1c2c(nc3ccccc13)CCCC2`: 22.6 nM and 12.1 nM.
The matching figures for `CC(C)(CO[N+](=O)[O-])C(=O)NCCCNc1c2c(nc3ccccc13)CCCC2`: 69.5 nM and 5.5 nM.
`O=C(CO[N+](=O)[O-])NCCCNc1c2c(nc3ccccc13)CCCC2` registered an EC50 in the assay on Artery of 3680 nM. Further, the IC50 against Acetylcholinesterase was found to be 28.2 nM; on Cholinesterase, 13.5 nM.
Consider `O=[N+]([O-])OCCCCCCNCCCCNc1c2c(nc3ccccc13)CCCC2`, for which the IC50 on Acetylcholinesterase was determined as 18.1 nM; against Cholinesterase, 10.8 nM.
Molecule `O=[N+]([O-])OCCCNCCCCNc1c2c(nc3ccccc13)CCCC2` came in with an EC50 in the assay on Artery of 8800 nM. The IC50 against Acetylcholinesterase was 5.6 nM; against Cholinesterase, 9.9 nM.
Turning to `O=C(CCO[N+](=O)[O-])NCCCCNc1c2c(nc3ccccc13)CCCC2`, the IC50 at Acetylcholinesterase stood at 45.7 nM; against Cholinesterase, 15.1 nM.
The corresponding values for `O=[N+]([O-])OCCNCCCNc1c2c(nc3ccccc13)CCCC2` are 10 nM and 5.2 nM.
